US10414763B2 (CANCER RESEARCH TECHNOLOGY LIMITED, priority 2014, dated 2019)

Molecular target: T1, full-length human PKCι (Homo sapiens, UniProt P41743)
T1 construct: Recombinant, full-length human PKCι expressed in Sf21 insect cells is also commercially available; purchased EMD Millipore; host or cells: Sf21 insect cells (baculovirus)
T1 sequence (P41743 1-596): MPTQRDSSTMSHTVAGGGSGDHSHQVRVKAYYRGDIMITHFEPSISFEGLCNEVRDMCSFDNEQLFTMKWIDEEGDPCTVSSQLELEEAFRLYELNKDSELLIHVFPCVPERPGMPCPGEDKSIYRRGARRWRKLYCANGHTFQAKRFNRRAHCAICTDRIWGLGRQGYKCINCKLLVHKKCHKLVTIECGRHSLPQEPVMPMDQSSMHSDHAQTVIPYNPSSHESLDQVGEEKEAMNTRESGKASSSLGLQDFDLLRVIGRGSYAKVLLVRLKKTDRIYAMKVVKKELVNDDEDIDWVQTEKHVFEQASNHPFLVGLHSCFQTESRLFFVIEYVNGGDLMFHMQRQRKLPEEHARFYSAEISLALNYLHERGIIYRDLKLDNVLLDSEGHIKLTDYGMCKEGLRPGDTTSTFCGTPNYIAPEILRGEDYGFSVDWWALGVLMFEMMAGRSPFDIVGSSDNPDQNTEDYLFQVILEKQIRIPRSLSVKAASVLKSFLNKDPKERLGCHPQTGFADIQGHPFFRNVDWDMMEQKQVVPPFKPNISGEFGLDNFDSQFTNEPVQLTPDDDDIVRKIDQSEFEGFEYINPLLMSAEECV
Experiment: PKCι IC50 IMAP fluorescence polarisation assay, full-length enzyme, 150 μM ATP
Format: biochemical
Settings: read-out: IC50 in IMAP assay against full length PKCi at 150 μM ATP
From the text: Assays are based on the ability of PKCι to phosphorylate a commercially available peptide substrate in vitro. The peptide substrate is FAM-PKCε pseudopeptide derived peptide, and comprises the amino acid sequence 5FAM-ERMRPRKRQGSVRRRV-NH2. Recombinant, full-length human PKCι expressed in Sf21 insect cells is also commercially available. Recombinant, kinase-domain human PKCι is expressed and purified in-house.
The procedure below explains how dose response curves for inhibitors of PKCι are obtained. The screen described is for a 384 well format but the assay can be adapted to 1536 or other formats as required.
Compounds to be tested are dissolved in 100% DMSO. Compounds are diluted as required to give a final concentration of 4% DMSO (v/v) in the assay. 1 μl is plated into 384 well black low-binding flat bottomed assay plates which are used immediately. Dilutions and additions of compound to assay plates are carried out using Matrix WellMate® and Matrix PlateMate® Plus liquid handling systems.
On the day of the screen PKCι/substrate working solution, and ATP working solution, are prepared in buffer containing 20 mM tris-HCl pH7.5, 10 mM MgCl2, 0.01% Triton X100, 250 μM EGTA and 1 mM DTT. The final concentration of PKCι used varies depending on the batch of protein but is typically 15 pM. The final concentration of peptide substrate in the assay is 100 nM. ATP is used at a final concentration of 150 μM or 25 μM in the assays containing full-length or kinase-domain PKCι respectively, which corresponds to five times or equal to the KM^APP for ATP for each enzyme, respectively. The final buffer concentration in the assay is 18 mM tris-HCl pH7.5, 9 mM MgCl2, 0.009% Triton X100, 225 μM EGTA and 0.9 mM DTT. Relevant controls are included, namely no compound and no enzyme. 5 μl PKCι/substrate working solution at 30 pM and 200 nM, respectively, is added to the wells, followed by 4 μl ATP working solution at 375 μM or 62.5 μM for full-length or kinase-domain PKCι respectively, using a 16 channel Matrix pipette. The reaction is allowed to incubate for 60 minutes at room temperature, before the reaction is stopped and developed by the addition of 20 μl IMAP™ development reagent (Molecular Devices). IMAP development reagent consists of 0.25% (v/v) IMAP progressive binding reagent, 17% (v/v) IMAP progressive binding buffer A and 3% (v/v) IMAP progressive binding buffer B. The plates are then incubated for 2 hours at room temperature before being read using an appropriate plate reader, for example a Molecular Devices HT Analyst or a BMG Pherastar. Plates are read using a fluorescence polarisation protocol with excitation at 485 nm and emission at 530 nm, and dichroic mirror at 505 nm.
Percentage inhibition values are calculated from fluorescence polarisation values, using the no compound and no enzyme control values as 0% and 100% inhibition, respectively. IC50 determination is performed with ExcelFit software (IDBS) using curve fit 205. Z′ factors are determined for each plate tested and are all above 0.5.
Alternatively, compounds were tested for their ability to inhibit the kinase activity of recombinant human baculovirus-expressed PKCiota using the immobilized metal-ion affinity particle (IMAP®) fluorescence polarization detection system (Molecular Devices, Sunnyvale, Calif.). PKCiota/IMAP® substrate mixture (2×) was prepared in 1×IMAP assay buffer (Molecular Devices) containing 1 mM DTT so that the final assay concentrations were 15 pM PKCiota (EMD Millipore, Billerica, Mass.) and 100 nM 5-fluorescein-amidite (FAM)-PKC ? -pseudosubstrate (5-FAM-ERMRPRKRQGSVRRRV-NH2) (Molecular Devices). The 2× working solution was added at 5 μL/well into a 384-well black, non-binding, flat bottom assay plate (Corning, Corning, N.Y.). […]

IC50, < 100 nM:
C[C@@]1(O)CNCC[C@H]1Nc1nc(-c2ccnc3[nH]c4ccccc4c23)nc2cncc(C3CC3)c12 (racemic) [Example 247, rac-(3R,4R)-4-[5-Cyclopropyl-2-(9H-pyrido[2,3-b]indol-4-yl)-pyrido[3,4-d]pyrimidin-4-ylamino]-3-methyl-piperidin-3-ol]
COc1cncc2nc(-c3ccnc(Nc4nc(F)ccc4F)c3)nc(NC3CCNCC3(C)C)c12 (racemic) [Example 261, rac-2-[2-[(3,6-difluoro-2-pyridyl)amino]-4-pyridyl]-N-(3,3-dimethyl-4-piperidyl)-5-methoxy-pyrido[3,4-d]pyrimidin-4-amine]
C[C@H]1CNCC[C@@H]1Nc1nc(-c2ccnc3[nH]c(C(F)(F)F)cc23)nc2cncc(C3CCC3)c12 (racemic) [Example 262]
C[C@@H]1CNCC[C@@H]1Nc1nc(-c2ccnc3[nH]c(C(F)(F)F)cc23)nc2cncc(C3CCC3)c12 (racemic) [Example 263]
O[C@H]1CNCC[C@H]1Nc1nc(-c2ccnc(Nc3ccc4ccccc4n3)c2)nc2cncc(C3CCC3)c12 (racemic) [Example 270, rac-(3S,4R)-4-{5-Cyclobutyl-2-[2-(quinolin-2-ylamino)-pyridin-4-yl]-pyrido[3,4-d]pyrimidin-4-ylamino}-piperidin-3-ol]
O[C@@H]1CNCC[C@H]1Nc1nc(-c2ccnc(Nc3ccc4ccccc4n3)c2)nc2cncc(C3CCC3)c12 (racemic) [Example 273, rac-(3R,4R)-4-{5-Cyclobutyl-2-[2-(quinolin-2-ylamino)-pyridin-4-yl]-pyrido[3,4-d]pyrimidin-4-ylamino}-piperidin-3-ol]
C[C@@H]1CNCC[C@@H]1Nc1nc(-c2ccnc(Nc3nc4ccccn4n3)c2)nc2cncc(C3CCC3)c12 (racemic) [Example 276, {5-Cyclobutyl-2-[2-([1,2,4]triazolo[1,5-a]pyridin-2-ylamino)-pyridin-4-yl]-pyrido[3,4-d]pyrimidin-4-yl}-(rac-(3R,4S)-3-methyl-piperidin-4-yl)-amine]
C[C@@H]1CNCC[C@H]1Nc1nc(-c2ccnc(Nc3nc4ccccn4n3)c2)nc2cncc(C3CCC3)c12 (racemic) [Example 277, {5-Cyclobutyl-2-[2-([1,2,4]triazolo[1,5-a]pyridin-2-ylamino)-pyridin-4-yl]-pyrido[3,4-d]pyrimidin-4-yl}-(rac-(3R,4R)-3-methyl-piperidin-4-yl)-amine]
C[C@@H]1CNCC[C@@H]1Nc1nc(-c2ccnc(Nc3ncccc3F)c2)nc2cncc(C3CCC3)c12 (racemic) [Example 282, {5-Cyclobutyl-2-[2-(3-fluoro-pyridin-2-ylamino)-pyridin-4-yl]-pyrido[3,4-d]pyrimidin-4-yl}-(rac-(3R,4S)-3-methyl-piperidin-4-yl)-amine]
C[C@@H]1CNCC[C@@H]1Nc1nc(-c2ccnc(Nc3ncc(F)cc3F)c2)nc2cncc(C3CCC3)c12 (racemic) [Example 283, {5-Cyclobutyl-2-[2-(3,5-difluoro-pyridin-2-ylamino)-pyridin-4-yl]-pyrido[3,4-d]pyrimidin-4-yl}-(rac-(3R,4S)-3-methyl-piperidin-4-yl)-amine]
O[C@H]1CNC[C@@H]1Nc1nc(-c2ccnc(Nc3nc(F)ccc3F)c2)nc2cncc(C3CCC3)c12 (racemic) [Example 285, rac-(3S,4S)-4-{5-Cyclobutyl-2-[2-(3,6-difluoro-pyridin-2-ylamino)-pyridin-4-yl]-pyrido[3,4-d]pyrimidin-4-ylamino}-pyrrolidin-3-ol]
O[C@@H]1CNCC[C@H]1Nc1nc(-c2ccnc(Nc3ncccc3F)c2)nc2cncc(C3CCC3)c12 (racemic) [Example 286, rac-(3R,4R)-4-{5-Cyclobutyl-2-[2-(3-fluoro-pyridin-2-ylamino)-pyridin-4-yl]-pyrido[3,4-d]pyrimidin-4-ylamino}-piperidin-3-ol]
O[C@@H]1CNCC[C@H]1Nc1nc(-c2ccnc(Nc3ncc(F)cc3F)c2)nc2cncc(C3CCC3)c12 (racemic) [Example 287, rac-(3R,4R)-4-{5-Cyclobutyl-2-[2-(3,5-difluoro-pyridin-2-ylamino)-pyridin-4-yl]-pyrido[3,4-d]pyrimidin-4-ylamino}-piperidin-3-ol]
C[C@@H]1CNCC[C@H]1Nc1nc(-c2ccnc(Nc3ncccc3F)c2)nc2cncc(C3CCC3)c12 (racemic) [Example 289, {5-Cyclobutyl-2-[2-(3-fluoro-pyridin-2-ylamino)-pyridin-4-yl]-pyrido[3,4-d]pyrimidin-4-yl}-(rac-(3R,4R)-3-methyl-piperidin-4-yl)-amine]
C[C@@H]1CNCC[C@H]1Nc1nc(-c2ccnc(Nc3ncc(F)cc3F)c2)nc2cncc(C3CCC3)c12 (racemic) [Example 290, {5-Cyclobutyl-2-[2-(3,5-difluoro-pyridin-2-ylamino)-pyridin-4-yl]-pyrido[3,4-d]pyrimidin-4-yl}-(rac-(3R,4R)-3-methyl-piperidin-4-yl)-amine]
C[C@@H]1CNCC[C@H]1Nc1nc(-c2ccnc(Nc3nc(F)cc(F)c3F)c2)nc2cncc(C3CCC3)c12 (racemic) [Example 291, {5-Cyclobutyl-2-[2-(3,4,6-trifluoro-pyridin-2-ylamino)-pyridin-4-yl]-pyrido[3,4-d]pyrimidin-4-yl}-(rac-(3R,4R)-3-methyl-piperidin-4-yl)-amine]
O[C@H]1CNCC[C@H]1Nc1nc(-c2ccnc(Nc3ncccc3F)c2)nc2cncc(C3CCC3)c12 (racemic) [Example 292, rac-(3S,4R)-4-{5-Cyclobutyl-2-[2-(3-fluoro-pyridin-2-ylamino)-pyridin-4-yl]-pyrido[3,4-d]pyrimidin-4-ylamino}-piperidin-3-ol]
O[C@H]1CNCC[C@H]1Nc1nc(-c2ccnc(Nc3ncc(F)cc3F)c2)nc2cncc(C3CCC3)c12 (racemic) [Example 293, rac-(3S,4R)-4-{5-Cyclobutyl-2-[2-(3,5-difluoro-pyridin-2-ylamino)-pyridin-4-yl]-pyrido[3,4-d]pyrimidin-4-ylamino}-piperidin-3-ol]
O[C@H]1CNCC[C@H]1Nc1nc(-c2ccnc(Nc3nc(F)cc(F)c3F)c2)nc2cncc(C3CCC3)c12 (racemic) [Example 294, rac-(3S,4R)-4-{5-Cyclobutyl-2-[2-(3,4,6-trifluoro-pyridin-2-ylamino)-pyridin-4-yl]-pyrido[3,4-d]pyrimidin-4-ylamino}-piperidin-3-ol]
